Measured values as given in PubChem BioAssay (NCI).
Values joined by “and” are separate entries in the source; they are usually repeats but may differ in a detail not shown here. Equal entries are not always repeated.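 Following 48 hours of exposure in 96-well plates, responses at five concentrations were used to interpolate endpoints linearly. At the GI50, growth is halved. TGI denotes the concentration required for complete inhibition of growth.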

Tests used:
Experiment in all cases: NCI anticancer screen, dose series, 48 h
[1] = system: SK-MEL-2 melanoma
[2] = system: HL-60(TB) leukemia
[3] = system: KM12 colon
[4] = system: PC-3 prostate
[5] = system: SNB-19 CNS
[6] = system: HOP-62 NSCLC
[7] = system: HCT-116 colon
[8] = system: U251 CNS
[9] = system: NCI-H226 lung
[10] = system: SK-MEL-5 melanoma

CCC/C=C/C=C/C(=O)OC1/C(=C/C(=O)OC)CC2CC(C(C)O)OC(=O)CC(O)CC3CC(OC(C)=O)C(C)(C)C(O)(CC4C/C(=C/C(=O)OC)CC(/C=C/C(C)(C)C1(O)O2)O4)O3 (stereo not given)
GI50 [1]: > 10.9 µM and 5.77 µM and > 12.5 µM
TGI [1]: > 10.9 µM and 11 µM and > 12.5 µM
GI50 [2]: 4.61 µM and 1.81 µM and > 12.5 µM
TGI [2]: 10.9 µM and 5.43 µM and > 12.5 µM
GI50 [3]: > 10.9 µM and 6.75 µM and > 12.5 µM
TGI [3]: > 10.9 µM and 9.07 µM and > 12.5 µM
GI50 [4]: > 12.5 µM
TGI [4]: 11 µM and > 12.5 µM
GI50 [5]: > 11 µM
TGI [5]: > 12.5 µM
GI50 [6]: 10.9 µM and > 12.5 µM
TGI [6]: 11 µM and > 12.5 µM
GI50 [7]: > 10.9 µM and 5.2 µM and > 12.5 µM
TGI [7]: > 10.9 µM and 11 µM and > 12.5 µM
GI50 [8]: > 10.9 µM and 7.21 µM and > 12.5 µM
TGI [8]: > 10.9 µM and 9.3 µM and > 12.5 µM
GI50 [9]: > 10.9 µM and 9.74 µM
TGI [9]: > 10.9 µM and 11 µM and > 12.5 µM
GI50 [10]: 7.86 µM and 1.9 µM and > 12.5 µM
TGI [10]: 10.9 µM and 11 µM and > 12.5 µM

CN[C@@H](C)C(=O)N[C@H](C(=O)N1CCC[C@H]1c1nc(C(=O)c2ccc(F)cc2)cs1)C1CCCCC1
GI50 [1]: 2.93 µM
TGI [1]: 23.8 µM
GI50 [2]: 3.69 µM
TGI [2]: 20 µM
GI50 [3]: 21.8 µM
TGI [3]: 51.4 µM
GI50 [4]: 24.1 µM
TGI [4]: > 73.6 µM
GI50 [5]: 53.9 µM
TGI [5]: > 100 µM
GI50 [6]: 20 µM
TGI [6]: > 65 µM
GI50 [7]: 27 µM
TGI [7]: > 95.5 µM
GI50 [8]: 15.6 µM
TGI [8]: 33.3 µM
GI50 [9]: 31.2 µM
TGI [9]: > 100 µM
GI50 [10]: 13.6 µM
TGI [10]: 28.7 µM

COc1ccc(C2=Nn3c(nnc3-c3ccc(F)c(Cl)c3)SC2)cc1
GI50 [1]: > 100 µM
TGI [1]: > 100 µM
GI50 [2]: > 100 µM
TGI [2]: > 100 µM
GI50 [3]: > 100 µM
TGI [3]: > 100 µM
GI50 [4]: > 100 µM
TGI [4]: > 100 µM
GI50 [5]: > 100 µM
TGI [5]: > 100 µM
GI50 [6]: > 100 µM
TGI [6]: > 100 µM
GI50 [7]: 61.6 µM
TGI [7]: > 100 µM
GI50 [8]: > 100 µM
TGI [8]: > 100 µM
GI50 [9]: > 100 µM
TGI [9]: > 100 µM
GI50 [10]: > 100 µM
TGI [10]: > 100 µM

CCCC(=O)Oc1ccc(/C(=C(\C)c2ccc(Cl)cc2)c2ccc(OCCN(CC)CC)cc2)cc1
GI50 [1]: 2.83 µM
TGI [1]: 5.93 µM
GI50 [2]: 2.23 µM
TGI [2]: 5.52 µM
GI50 [3]: 3.05 µM
TGI [3]: 10.7 µM
GI50 [4]: 0.56 µM
TGI [4]: 14.1 µM
GI50 [5]: 2.81 µM
TGI [5]: 7.29 µM
GI50 [6]: 2.16 µM
TGI [6]: 4.68 µM
GI50 [7]: 1.55 µM
TGI [7]: 3.21 µM
GI50 [8]: 1.95 µM
TGI [8]: 4.06 µM
GI50 [9]: 8.8 µM
TGI [9]: 25 µM
GI50 [10]: 1.75 µM
TGI [10]: 3.21 µM

Nc1nc(N)nc(CCCCc2nc(N)nc(N)n2)n1
TGI [1]: > 100 µM
TGI [2]: > 100 µM
TGI [3]: > 100 µM
TGI [4]: > 100 µM
TGI [5]: > 100 µM
TGI [6]: > 100 µM
TGI [7]: > 100 µM
TGI [8]: > 100 µM
TGI [9]: > 100 µM
TGI [10]: > 100 µM

O=C(O)CCC(O)=C1S(=O)(=O)OCCOS1(=O)=O
TGI [1]: > 100 µM
TGI [2]: > 100 µM
TGI [3]: > 100 µM
TGI [4]: > 100 µM
TGI [5]: > 100 µM
TGI [6]: > 100 µM
TGI [7]: > 100 µM
TGI [8]: > 100 µM
TGI [9]: > 100 µM
TGI [10]: > 100 µM

Nc1n[n+]([O-])c2ccc(Cl)cc2[n+]1[O-]
TGI [1]: > 100 µM
TGI [2]: > 100 µM
TGI [3]: 32.6 µM
TGI [4]: > 100 µM
TGI [5]: > 100 µM
TGI [6]: 79.7 µM
TGI [7]: > 100 µM
TGI [8]: 67.3 µM
TGI [9]: 72.9 µM
TGI [10]: 16.5 µM

Cc1cc(NC(=O)NCCOc2ccc(N3C(N)=NC(N)=NC3(C)C)cc2Cl)ccc1S(=O)(=O)F
GI50 [1]: 5.29 µM
TGI [1]: 27.1 µM
GI50 [2]: 1.8 µM
TGI [2]: 36.8 µM
GI50 [3]: 1.04 µM
TGI [3]: > 44.3 µM
GI50 [4]: 0.143 µM
TGI [4]: 22.3 µM
GI50 [5]: 4.31 µM
TGI [5]: > 100 µM
GI50 [6]: 8.36 µM
TGI [6]: > 73.2 µM
GI50 [7]: 0.545 µM
TGI [7]: > 100 µM
GI50 [8]: 0.716 µM
TGI [8]: > 72.9 µM
GI50 [9]: 8.57 µM
TGI [9]: > 100 µM
GI50 [10]: 1.19 µM
TGI [10]: 11.4 µM

COc1ccc(-n2cc(-c3cc(OC)c(OC)c(OC)c3)nc2SCc2cccc(C#N)c2)cc1OC
GI50 [1]: > 100 µM
TGI [1]: > 100 µM
GI50 [2]: > 100 µM
TGI [2]: > 100 µM
GI50 [3]: > 100 µM
TGI [3]: > 100 µM
GI50 [4]: 59.8 µM
TGI [4]: > 100 µM
GI50 [5]: > 100 µM
TGI [5]: > 100 µM
GI50 [6]: > 100 µM
TGI [6]: > 100 µM
GI50 [7]: 46 µM
TGI [7]: > 100 µM
GI50 [8]: > 100 µM
TGI [8]: > 100 µM
GI50 [9]: > 100 µM
TGI [9]: > 100 µM
GI50 [10]: 71.8 µM
TGI [10]: > 100 µM

COc1cc(C[C@H]2COC(=O)[C@]2(O)Cc2ccc(OCc3ccccc3)c(OC)c2)ccc1OCc1ccccc1
GI50 [1]: > 100 µM
TGI [1]: > 100 µM
GI50 [2]: 28 µM
TGI [2]: > 100 µM
GI50 [3]: 7.3 µM
TGI [3]: > 100 µM
GI50 [4]: 74.7 µM
TGI [4]: > 100 µM
GI50 [5]: > 100 µM
TGI [5]: > 100 µM
GI50 [6]: > 100 µM
TGI [6]: > 100 µM
GI50 [7]: 16.8 µM
TGI [7]: > 100 µM
GI50 [8]: 23.9 µM
TGI [8]: > 100 µM
GI50 [9]: 33.7 µM
TGI [9]: > 100 µM
GI50 [10]: 13.7 µM
TGI [10]: 37.1 µM

CC(NCCN(C)C)C1CCC2C3CCc4cc(O)ccc4C3CCC12C (stereo not given)
TGI [1]: 3.79 µM
TGI [2]: 4.15 µM
TGI [3]: 10.3 µM
TGI [4]: 11.7 µM
TGI [5]: 13.2 µM
TGI [6]: 8.7 µM
TGI [7]: 7.7 µM
TGI [8]: 4.35 µM
TGI [9]: 34 µM
TGI [10]: 3.29 µM

O=C1/C(=C/c2ccc(F)cc2)COc2ccc(O)c(O)c21
GI50 [1]: 4.61 µM
TGI [1]: 47.5 µM
GI50 [2]: 0.604 µM
TGI [2]: 3.89 µM
GI50 [3]: 1.99 µM
TGI [3]: 6.82 µM
GI50 [4]: 1.16 µM
TGI [4]: > 100 µM
GI50 [5]: 3.36 µM
TGI [5]: 15.8 µM
GI50 [6]: 3.43 µM
TGI [6]: 17.8 µM
GI50 [7]: 1.87 µM
TGI [7]: 4.98 µM
GI50 [8]: 1.46 µM
TGI [8]: 4.19 µM
GI50 [9]: 2.47 µM
TGI [9]: 7.08 µM
GI50 [10]: 3.16 µM
TGI [10]: 11.7 µM

N#CC1=C(N)NC(=O)C(C#N)C12Nc1ccccc1S2 (stereo not given)
GI50 [1]: 40.7 µM
TGI [1]: > 100 µM
GI50 [2]: 91.6 µM
TGI [2]: > 100 µM
GI50 [3]: 82 µM
TGI [3]: > 100 µM
GI50 [4]: 60.4 µM
TGI [4]: > 100 µM
GI50 [5]: 90.5 µM
TGI [5]: > 100 µM
GI50 [6]: > 100 µM
TGI [6]: > 100 µM
GI50 [7]: 59.4 µM
TGI [7]: > 100 µM
GI50 [8]: > 100 µM
TGI [8]: > 100 µM
GI50 [9]: 41.3 µM
TGI [9]: > 100 µM
GI50 [10]: > 100 µM
TGI [10]: > 100 µM

COc1ccc2c(=O)c(-c3cc(OC)c(OC)cc3OC)coc2c1
TGI [1]: > 100 µM
TGI [2]: 2.92 µM
TGI [3]: > 100 µM
TGI [4]: > 100 µM
TGI [5]: > 100 µM
TGI [6]: > 100 µM
TGI [7]: > 100 µM
TGI [8]: > 38.6 µM
TGI [9]: > 100 µM
TGI [10]: > 100 µM
